In patent publication US20200237852A1, “Small Molecule Enhancers of Paneth Cell Function and Differentiation” (Massachusetts Institute of Technology, priority 2019, published 2020):

How the values were obtained:
Type in all cases: cell-based, C57BL/6 mice
[1] = tested on: ENR+CD organoids; experiment: Flow cytometry analysis, 3D culture, XPO1 inhibitors; conditions: 6-day ENR+CD organoids
Experimental: ISC-enriched organoids cultured in 3D Matrigel with ENRCV media were passaged to 24-well plate in 3D Matrigel with ENRCV. At day zero, media were replaced to ENRCD with or without indicated compounds, and media were replaced every other day. At day six, cells were washed with basal media, and then harvested from Matrigel by mechanical disruption in TrypLE Express (ThermoFisher, 12605010) to remove Matrigel and dissociate organoids to single cells. After vigorous pipetting and incubation at 37° C. for 20 min, dissociated organoids were strained through a 35 μm cell strainer into a tube (Falcon, 352235). The cell filtrate was centrifuged again at 300×g for 3 min at 4° C. to pellet the cells. Cell pellets were resuspended in FACS buffer (2% FBS in PBS), and then transferred to an ultra low-bind 96-well plate (Corning, 7007). Cells were stained with Zombie-violet viability dye (BioLegend, 423107) at 100× for viability staining and/or antibody staining solution. FITC-conjugated antibody for lysozyme (Dako, […]) and APC-conjugated antibody for CD24 (BioLegend, 138505) were used at 100× dilution. Flow cytometry was performed using an LSR Fortessa (BD; Koch Institute Flow Cytometry Core at MIT). The data were analyzed using FlowJo v10 software.

[2] = tested on: conventional organoid (ENR); experiment: 384-well screen in conventional organoid (ENR), secreted LYZ (LYZ.NS, LYZ.S); conditions: 6-day ENR differentiation compared with ENR+CD
[3] = tested on: organoids differentiated under ENR+CV, ENR+CD, or ENR; experiment: Western blotting for LYZ in organoids; conditions: six days in ENR+CV
Description: ISC-enriched organoids cultured in 3D Matrigel with ENRCV media were passaged to 24-well plate in 3D Matrigel with ENRCV. At day zero, media were replaced to ENR or ENRCD with or without indicated compounds, and media were replaced every other day. At day six, cells were harvested from Matrigel by mechanical disruption and suspended in basal media. Cell pellets were lysed with Pierce® IP lysis buffer (ThermoFisher, 87787) containing Halt™ Protease Inhibitor Cocktail, EDTA-Free (ThermoFisher, 87785) after 3-minute centrifuge at 300×g at 4° C. Cell extracts were resolved by NuPAGE® SDS-PAGE Gel system (ThermoFisher) and electroblotted onto polyvinylidene difluoride membranes using Criterion™ Blotter (Biorad). The membranes were blocked with 2% Blotting-Grade Blocker (Biorad, 1706404) in TBS-T (50 mM Tris-HCl, 150 mM NaCl, and 0.1% Tween 20, pH 8.0) and then probed with appropriate antibodies. Detection was performed using ECL Select™ Western Blotting Detection Reagent (Amersham, 45-000-999) and ImageQuant LAS4000 (GE Healthcare).

## O=C(/C=C\n1cnc(-c2cc(C(F)(F)F)cc(C(F)(F)F)c2)n1)NNc1cnccn1 [KPT-330]
[1]
  Paneth cell representation by flow cytometry: statistically significant increases in Paneth cell representation
[2]
  mean fold change in LYZ.NS/ATP and LYZ.S/ATP (LYZ secretion per cell) in ENR: reasonable increases in LYZ secretion per cell in ENR
[3]
  LYZ abundance on a per-mass protein normalized basis (western blot): appreciably increase LYZ abundance
